B1: BP1253 (enzyme, Bordetella pertussis, UniProt Q7VYQ7 1-209, looked up)
chain: MSEIKTAAEKLADIGPAVSMFGSARISRESPYYETCAAISAALAGAGFAIIAGGGPGIMEAANKGAFEAGGTSVGLNISLPHEAHNNEYQTISLSFEYFYSRKATFFMHSMAYVAMPGGFGTLDELFEALTLIQTGKVPPAPIVLVGSEFWHGLVDWLGEQLLANGMIAAHDLNLFIIEDDPAKVVRKVVEFHDKQGRTDSQYAPSLPA
notes: also called BpLOG; BP1253-His

Columns and labels:
BP1253 (BpLOG) [1] = target: T1, BP1253 (BpLOG) (Bordetella pertussis, UniProt Q7VYQ7); assay: SPR (Biacore T200, steady state, amine-coupled BP1253-His); cleavage also shown by TLC; format: binding
T1 construct: recombinant BP1253 with C-terminal 6x His tag (BP1253-His)

BP1253 (BpLOG) [2] = target: T1, BP1253 (BpLOG); assay: SPR (data not shown); format: binding
[3] = target: the molecule itself; assay: SEC; analytical SEC, BEH200 column 4.6 x 300 mm, 10 mM NaH2PO4, 400 mM (NH4)2SO4 pH 6.0; samples of 0.62 mg/ml and 3 mg/ml; mass from a calibration curve of standard proteins

Molecule | Kd (BP1253 (BpLOG) [1]) | Kd (BP1253 (BpLOG) [2]) | other results
Nc1ncnc2c1ncn2[C@@H]1O[C@H](COP(=O)(O)O)[C@@H](O)[C@H]1O [AMP] | 5.7 µM |  | 
Nc1nc2c(ncn2[C@@H]2O[C@H](COP(=O)(O)O)[C@@H](O)[C@H]2O)c(=O)[nH]1 [GMP] | 38.6 µM |  | 
Cc1cn([C@H]2C[C@H](O)[C@@H](COP(=O)(O)O)O2)c(=O)[nH]c1=O [TMP] |  | 2400 µM | 
O=c1ccn([C@@H]2O[C@H](COP(=O)(O)O)[C@@H](O)[C@H]2O)c(=O)[nH]1 [UMP] |  | 6100 µM | 
B1 |  |  | stoichiometry N [3]: 2
